In the supplement of paper PMC8671470:

Legend:
Conditions in all cases: 72 h
[1] = system: myeloid leukemia patient primary cells Pat.7; assay: cell viability (% survival relative to DMSO control); higher = less cytotoxic
Summary of the method: (§1)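 Thawed mononuclear cells from AML or CML patients were purified on Ficoll and cultured for 72 h in RPMI 1640 with 10% FBS, at 10,000 cells/well, on 384-well plates carrying 70 pre-printed compounds at 1–10,000 nM in five tenfold steps, in duplicate. Viability came from CellTiter-Glo, normalised against DMSO and against 10 μM proteasome inhibitor. Any area under the curve given was derived from log-logistic curve fits in the drc and PharmacoGx R packages, and these fits had four parameters.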

[2] = system: myeloid leukemia patient primary cells Pat.5; assay: as above
Summary of the method: as §1

[3] = system: myeloid leukemia patient primary cells Pat.6; assay: as above
Summary of the method: as §1

[4] = system: myeloid leukemia patient primary cells Pat.2; assay: as above
Summary of the method: as §1

[5] = system: myeloid leukemia patient primary cells Pat.8; assay: as above
Summary of the method: as §1

[6] = system: myeloid leukemia patient primary cells Pat.14; assay: as above
Summary of the method: as §1

[7] = system: myeloid leukemia patient primary cells Pat.12; assay: as above
Summary of the method: as §1

[8] = system: myeloid leukemia patient primary cells Pat.5; assay: area under dose-response curve (viability, 1 nM-10 uM) (fraction (0-1)); higher = more sensitive
Protocol: (§2)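 AUC (0–1, higher = more sensitive) of the 5-point dose–response (1 nM–10 µM, 72 h, CellTiter-Glo) in primary AML/CML patient mononuclear cells. 0.030103 is the floor for inactive compounds.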

[9] = system: myeloid leukemia patient primary cells Pat.3; assay: as above
Protocol: as §2

[10] = system: myeloid leukemia patient primary cells Pat.4; assay: as above
Protocol: as §2

[11] = system: myeloid leukemia patient primary cells Pat.15; assay: as above
Protocol: as §2

[12] = system: myeloid leukemia patient primary cells Pat.6; assay: as above
Protocol: as §2

[13] = system: myeloid leukemia patient primary cells Pat.9; assay: as above
Protocol: as §2

[14] = system: myeloid leukemia patient primary cells Pat.2; assay: as above
Protocol: as §2

[15] = system: myeloid leukemia patient primary cells Pat.11; assay: as above
Protocol: as §2

[16] = system: myeloid leukemia patient primary cells Pat.8; assay: as above
Protocol: as §2

[17] = system: myeloid leukemia patient primary cells Pat.1; assay: as above
Protocol: as §2

[18] = system: myeloid leukemia patient primary cells Pat.14; assay: as above
Protocol: as §2

[19] = system: myeloid leukemia patient primary cells Pat.12; assay: as above
Protocol: as §2

[20] = system: myeloid leukemia patient primary cells Pat.13; assay: as above
Protocol: as §2

ML-2 = system: ML-2
Summary of the method: (§3)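 Fifteen myeloid leukaemia cell lines were seeded in RPMI 1640 at densities titrated to the linear growth range and placed in 384-well plates with acoustically pre-printed compounds at five tenfold doses from 1 to 10,000 nM, in duplicate. After 72 h at 37 °C with 5% CO2, luminescent ATP viability was normalised to vehicle and to a positive control at 10 µM, and curves were fitted with a four-parameter log-logistic model. The IC50 was obtained from these fits.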

THP-1 = system: THP-1
Summary of the method: as §3

LAMA-84 = system: LAMA-84
Summary of the method: as §3

HL-60 = system: HL-60
Summary of the method: as §3

BV-173 = system: BV-173
Summary of the method: as §3

KG-1 = system: KG-1
Summary of the method: as §3

SHI-1 = system: SHI-1
Summary of the method: as §3

HEL = system: HEL
Summary of the method: as §3

NOMO-1 = system: NOMO-1
Summary of the method: as §3

KU-812 = system: KU-812
Summary of the method: as §3

MOLM-13 = system: MOLM-13
Summary of the method: as §3

K-562 = system: K-562
Summary of the method: as §3

Mono-Mac-6 = system: Mono-Mac-6
Summary of the method: as §3

MV4-11 = system: MV4-11
Summary of the method: as §3

[21] = system: myeloid leukemia patient primary cells Pat.7; assay: area under dose-response curve (viability, 1 nM-10 uM) (fraction (0-1)); higher = more sensitive
Protocol: as §2

[22] = system: myeloid leukemia patient primary cells Pat.10; assay: as above
Protocol: as §2

Cc1c(-c2ccc(-c3ccccc3F)cc2)nc2ccc(F)cc2c1C(=O)O [Brequinar]
cell viability [%]
Conditions | [1] | [2] | [3] | [4] | [5] | [6] | [7]
1 nM | 81.2 | 66.1 | > 100 | > 100 | 91.5 | 89.4 | 22
10 nM | 87.1 | 60.8 | > 100 | 92.7 | 82 | 81.1 | 99
100 nM | 62 | 47.9 | 93.9 | 97.1 | 78 | 73.4 | 93.2
1000 nM | 60.6 | 33.1 | 97.8 | 95.2 | 97.6 | 65.6 | 98.4
10000 nM | 55.3 | 6.89 | 96.8 | 99.9 | 88.4 | 32.3 | 95

Conditions | IC50 (cell viability) [nM] | area under dose-response curve
BV-173 | 7190 | –
HEL | 1480 | –
HL-60 | 6090 | –
K-562 | 8590 | –
KG-1 | > 10000 | –
KU-812 | > 10000 | –
LAMA-84 | 9690 | –
ML-2 | 8460 | –
MOLM-13 | 4340 | –
MV4-11 | 7760 | –
Mono-Mac-6 | > 10000 | –
NOMO-1 | > 10000 | –
SHI-1 | > 10000 | –
THP-1 | > 10000 | –
[8] | – | 0.433
[9] | – | 0.588
[10] | – | < 0.0301
[11] | – | < 0.0301
[12] | – | < 0.0301
[13] | – | 0.532
[14] | – | < 0.0301
[15] | – | < 0.0301
[16] | – | < 0.0301
[17] | – | < 0.0301
[18] | – | 0.142
[19] | – | < 0.0301
[20] | – | < 0.0301

C=C(C)[C@H]1Cc2c(ccc3c2O[C@@H]2COc4cc(OC)c(OC)cc4[C@@H]2C3=O)O1 [Rotenone]
cell viability [%]
Conditions | [1] | [2] | [3] | [4] | [5] | [6] | [7]
1 nM | 5.63 | 5.46 | 44.2 | 62.7 | 70.8 | 30.2 | 94.8
10 nM | 79.4 | 0.265 | 75.4 | 86.5 | 79.3 | 71 | 89.2
100 nM | 54.6 | 0.912 | 47.2 | 68.7 | 55.6 | 50 | 66.1
1000 nM | 36.3 | 0.265 | 37.3 | 61.5 | 36.8 | 30.8 | 64.9
10000 nM | 1.21 | 1.18 | 23.7 | 57.5 | 3.96 | 10.7 | 49.5

Conditions | IC50 (cell viability) [nM] | area under dose-response curve
BV-173 | 80 | –
HEL | 168 | –
HL-60 | 269 | –
K-562 | 40.7 | –
KG-1 | 68.4 | –
KU-812 | 23.2 | –
LAMA-84 | 74.4 | –
ML-2 | 322 | –
MOLM-13 | 176 | –
MV4-11 | 156 | –
Mono-Mac-6 | 225 | –
NOMO-1 | 644 | –
SHI-1 | 179 | –
THP-1 | 268 | –
[8] | – | 0.99
[9] | – | 0.57
[10] | – | 0.187
[11] | – | 0.465
[12] | – | 0.399
[13] | – | 0.55
[15] | – | < 0.0301
[16] | – | 0.322
[17] | – | 0.112
[18] | – | 0.41
[19] | – | 0.0808
[20] | – | 0.391
[21] | – | 0.329
[22] | – | 0.411
